The compounds below were run against VMAT2 (human platelet homogenate) (Homo sapiens (Human), UniProt Q05940) (assay: Human VMAT2 Ki, slightly modified competition binding procedure (Table 11)). Details: 10 nM 3H-dihydrotetrabenazine.
Method: Following incubation at 25° C. for 90 minutes, bound radioligand was collected by rapid filtration onto GF/B glass fiber filters using a Unifilter-96 Harvester (PerkinElmer). Filter plates were pre-treated with 0.1% polyethylenimine and allowed to dry overnight, and following harvesting the filter plates were washed with 800 d VMAT2 binding buffer. Bound radioligand was quantified by scintillation counting using a Topcount NXT (PerkinElmer).
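Further: competition binding with 90 min incubation at 25 °C, after which filter-retained radioligand was measured by scintillation counting.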

Sequence of VMAT2 (human platelet homogenate) (Q05940 whole entry): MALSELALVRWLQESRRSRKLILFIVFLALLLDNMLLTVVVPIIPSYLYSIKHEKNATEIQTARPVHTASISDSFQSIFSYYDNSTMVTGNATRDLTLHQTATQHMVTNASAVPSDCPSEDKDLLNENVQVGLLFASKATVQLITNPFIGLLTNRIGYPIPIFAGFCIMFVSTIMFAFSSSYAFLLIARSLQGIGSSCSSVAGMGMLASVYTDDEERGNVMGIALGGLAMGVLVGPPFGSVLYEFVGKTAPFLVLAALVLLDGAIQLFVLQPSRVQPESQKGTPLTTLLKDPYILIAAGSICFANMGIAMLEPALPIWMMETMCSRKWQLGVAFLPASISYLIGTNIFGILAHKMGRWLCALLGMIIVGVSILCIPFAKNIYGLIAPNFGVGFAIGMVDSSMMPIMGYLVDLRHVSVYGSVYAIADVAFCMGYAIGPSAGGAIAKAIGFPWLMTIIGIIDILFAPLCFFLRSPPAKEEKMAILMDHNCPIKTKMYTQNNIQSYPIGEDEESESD

Compound | Ki [nM]
COc1cc2c(cc1OC)[C@H]1C[C@@H](COC(=O)[C@@H]3CC(=O)NC(=O)N3)[C@H](CC(C)C)CN1CC2 [Compound 2-31, [(2R,3S,11bR)-9,10-dimethoxy-3-(2-methylpropyl)-1H,2H,3H,4H,6H,7H,11bH-pyrido[2,1-a]isoquinolin-2-yl]methyl (4S)-2,6-dioxo-1,3-diazinane-4-carboxylate] | < 10
CCN(CC)CCC(=O)OC[C@@H]1C[C@@H]2c3cc(OC)c(OC)cc3CCN2C[C@H]1CC(C)C [Compound 2-32, [(2R,3S,11bR)-9,10-dimethoxy-3-(2-methylpropyl)-1H,2H,3H,4H,6H,7H,11bH-pyrido[2,1-a]isoquinolin-2-yl]methyl 3-(diethylamino)propanoate] | < 10
COc1cc2c(cc1OC)[C@H]1C[C@@H](COC(=O)C[C@@H]3NC(=O)NC3=O)[C@H](CC(C)C)CN1CC2 [Compound 2-33, [(2R,3S,11bR)-9,10-dimethoxy-3-(2-methylpropyl)-1H,2H,3H,4H,6H,7H,11bH-pyrido[2,1-a]isoquinolin-2-yl]methyl 2-[(4S)-2,5-dioxoimidazolidin-4-yl]acetate] | 10 to 500
CCCCCC(=O)OC[C@@H]1C[C@@H]2c3cc(OC)c(OC)cc3CCN2C[C@H]1CC(C)C [Compound 2-34, [(2R,3S,11bR)-9,10-dimethoxy-3-(2-methylpropyl)-1H,2H,3H,4H,6H,7H,11bH-pyrido[2,1-a]isoquinolin-2-yl]methyl hexanoate] | < 10
COc1cc2c(cc1OC)[C@H]1C[C@@H](COC(=O)CS(=O)(=O)O)[C@H](CC(C)C)CN1CC2 [Compound 2-35, 2-{[(2R,3S,11bR)-9,10-dimethoxy-3-(2-methylpropyl)-1H,2H,3H,4H,6H,7H,11bH-pyrido[2,1-a]isoquinolin-2-yl]methoxy}-2-oxoethane-1-sulfonic acid] | > 500
COc1cc2c(cc1OC)[C@H]1C[C@@H](COC(=O)CCCN(C)C)[C@H](CC(C)C)CN1CC2 [Compound 2-36, [(2R,3S,11bR)-9,10-dimethoxy-3-(2-methylpropyl)-1H,2H,3H,4H,6H,7H,11bH-pyrido[2,1-a]isoquinolin-2-yl]methyl 4-(dimethylamino)butanoate] | < 10
COc1cc2c(cc1OC)[C@H]1C[C@@H](COC(=O)C3CCCN(S(C)(=O)=O)C3)[C@H](CC(C)C)CN1CC2 (stereo partly drawn) [Compound 2-37, [(2R,3S,11bR)-9,10-dimethoxy-3-(2-methylpropyl)-1H,2H,3H,4H,6H,7H,11bH-pyrido[2,1-a]isoquinolin-2-yl]methyl 1-methanesulfonylpiperidine-3-carboxylate] | 10 to 500
COc1cc2c(cc1OC)[C@H]1C[C@@H](COC(=O)C3C(C)(C)C3(C)C)[C@H](CC(C)C)CN1CC2 [Compound 2-38, [(2R,3S,11bR)-9,10-dimethoxy-3-(2-methylpropyl)-1H,2H,3H,4H,6H,7H,11bH-pyrido[2,1-a]isoquinolin-2-yl]methyl 2,2,3,3-tetramethylcyclopropane-1-carboxylate] | 10 to 500
COc1cc2c(cc1OC)[C@H]1C[C@@H](COC(=O)CCn3c(=O)oc4ccccc43)[C@H](CC(C)C)CN1CC2 [Compound 2-39, [(2R,3S,11bR)-9,10-dimethoxy-3-(2-methylpropyl)-1H,2H,3H,4H,6H,7H,11bH-pyrido[2,1-a]isoquinolin-2-yl]methyl 3-(2-oxo-2,3-dihydro-1,3-benzoxazol-3-yl)propanoate] | < 10
COc1cc2c(cc1OC)[C@H]1C[C@@H](COC(=O)CC(=O)O)[C@H](CC(C)C)CN1CC2 [Compound 3-2, 3-{[(2R,3S,11bR)-9,10-dimethoxy-3-(2-methylpropyl)-1H,2H,3H,4H,6H,7H,11bH-pyrido[2,1-a]isoquinolin-2-yl]methoxy}-3-oxopropanoic acid] | < 10
COc1cc2c(cc1OC)[C@H]1C[C@@H](COC(=O)C3CCCCC3C(=O)O)[C@H](CC(C)C)CN1CC2 (stereo partly drawn) [Compound 3-5, 2-({[(2R,3S,11bR)-9,10-dimethoxy-3-(2-methylpropyl)-1H,2H,3H,4H,6H,7H,11bH-pyrido[2,1-a]isoquinolin-2-yl]methoxy}carbonyl)cyclohexane-1-carboxylic acid] | 10 to 500
COc1cc2c(cc1OC)[C@H]1C[C@@H](COC(=O)[C@@H](N)Cc3ccccc3)[C@H](CC(C)C)CN1CC2 [Compound 4-2, [(2R,3S,11bR)-9,10-dimethoxy-3-(2-methylpropyl)-1H,2H,3H,4H,6H,7H,11bH-pyrido[2,1-a]isoquinolin-2-yl]methyl (2S)-2-amino-3-phenylpropanoate] | < 10
COc1cc2c(cc1OC)[C@H]1C[C@@H](COC(=O)[C@@H]3COCCN3)[C@H](CC(C)C)CN1CC2 [Compound 4-3, [(2R,3S,11bR)-9,10-dimethoxy-3-(2-methylpropyl)-1H,2H,3H,4H,6H,7H,11bH-pyrido[2,1-a]isoquinolin-2-yl]methyl (3S)-morpholine-3-carboxylate] | 10 to 500
COc1cc2c(cc1OC)[C@H]1C[C@@H](COC(=O)[C@@H]3CCCC[C@H]3N)[C@H](CC(C)C)CN1CC2 [Compound 4-4, [(2R,3S,11bR)-9,10-dimethoxy-3-(2-methylpropyl)-1H,2H,3H,4H,6H,7H,11bH-pyrido[2,1-a]isoquinolin-2-yl]methyl (1R,2R)-2-aminocyclohexane-1-carboxylate] | < 10
COc1cc2c(cc1OC)[C@H]1C[C@@H](COC(=O)C3NCc4ccccc43)[C@H](CC(C)C)CN1CC2 (stereo partly drawn) [Compound 4-6, [(2R,3S,11bR)-9,10-dimethoxy-3-(2-methylpropyl)-1H,2H,3H,4H,6H,7H,11bH-pyrido[2,1-a]isoquinolin-2-yl]methyl 2,3-dihydro-1H-isoindole-1-carboxylate] | 10 to 500
COc1cc2c(cc1OC)[C@H]1C[C@@H](COC(=O)C3CCCC3N)[C@H](CC(C)C)CN1CC2 (stereo partly drawn) [Compound 4-11, [(2R,3S,11bR)-9,10-dimethoxy-3-(2-methylpropyl)-1H,2H,3H,4H,6H,7H,11bH-pyrido[2,1-a]isoquinolin-2-yl]methyl 2-aminocyclopentane-1-carboxylate] | 10 to 500
COc1cc2c(cc1OC)[C@H]1CC(COC(=O)[C@@H](N)C(C)C)[C@H](CC(C)C)CN1CC2 (stereo partly drawn) [Compound 4-12, [(3S,11bR)-9,10-dimethoxy-3-(2-methylpropyl)-1H,2H,3H,4H,6H,7H,11bH-pyrido[2,1-a]isoquinolin-2-yl]methyl (2S)-2-amino-3-methylbutanoate] | < 10
COc1cc2c(cc1OC)[C@H]1C[C@@H](COC(=O)CC3(N)CCCCC3)[C@H](CC(C)C)CN1CC2 [Compound 4-14, [(2R,3S,11bR)-9,10-dimethoxy-3-(2-methylpropyl)-1H,2H,3H,4H,6H,7H,11bH-pyrido[2,1-a]isoquinolin-2-yl]methyl 2-(1-aminocyclohexyl)acetate] | < 10
COc1cc2c(cc1OC)[C@H]1C[C@@H](COC(=O)CC(N)C(C)C)[C@H](CC(C)C)CN1CC2 (stereo partly drawn) [Compound 4-17, [(2R,3S,11bR)-9,10-dimethoxy-3-(2-methylpropyl)-1H,2H,3H,4H,6H,7H,11bH-pyrido[2,1-a]isoquinolin-2-yl]methyl 3-amino-4-methylpentanoate] | < 10
COc1cc2c(cc1OC)[C@H]1C[C@@H](COC(=O)c3ccc(CN)cc3)[C@H](CC(C)C)CN1CC2 [Compound 4-18, [(2R,3S,11bR)-9,10-dimethoxy-3-(2-methylpropyl)-1H,2H,3H,4H,6H,7H,11bH-pyrido[2,1-a]isoquinolin-2-yl]methyl 4-(aminomethyl)benzoate] | 10 to 500
COc1cc2c(cc1OC)[C@H]1C[C@@H](COC(=O)C(N)c3ccccc3OC)[C@H](CC(C)C)CN1CC2 (stereo partly drawn) [Compound 4-19, [(2R,3S,11bR)-9,10-dimethoxy-3-(2-methylpropyl)-1H,2H,3H,4H,6H,7H,11bH-pyrido[2,1-a]isoquinolin-2-yl]methyl 2-amino-2-(2-methoxyphenyl)acetate] | 10 to 500
COc1cc2c(cc1OC)[C@H]1C[C@@H](COC(=O)C3CCCNC3)[C@H](CC(C)C)CN1CC2 (stereo partly drawn) [Compound 4-20, [(2R,3S,11bR)-9,10-dimethoxy-3-(2-methylpropyl)-1H,2H,3H,4H,6H,7H,11bH-pyrido[2,1-a]isoquinolin-2-yl]methyl piperidine-3-carboxylate] | < 10
COc1cc2c(cc1OC)[C@H]1C[C@@H](COC(=O)C3NCCc4ccccc43)[C@H](CC(C)C)CN1CC2 (stereo partly drawn) [Compound 4-21, [(2R,3S,11bR)-9,10-dimethoxy-3-(2-methylpropyl)-1H,2H,3H,4H,6H,7H,11bH-pyrido[2,1-a]isoquinolin-2-yl]methyl 1,2,3,4-tetrahydroisoquinoline-1-carboxylate] | 10 to 500
COc1cc2c(cc1OC)[C@H]1C[C@@H](COC(=O)C[C@H]3CCCN3)[C@H](CC(C)C)CN1CC2 [Compound 4-23, [(2R,3S,11bR)-9,10-dimethoxy-3-(2-methylpropyl)-1H,2H,3H,4H,6H,7H,11bH-pyrido[2,1-a]isoquinolin-2-yl]methyl 2-[(2R)-pyrrolidin-2-yl]acetate] | < 10
COc1cc2c(cc1OC)[C@H]1C[C@@H](COC(=O)CCN)[C@H](CC(C)C)CN1CC2 [Compound 4-24, [(2R,3S,11bR)-9,10-dimethoxy-3-(2-methylpropyl)-1H,2H,3H,4H,6H,7H,11bH-pyrido[2,1-a]isoquinolin-2-yl]methyl 3-aminopropanoate] | < 10
COc1cc2c(cc1OC)[C@H]1C[C@@H](COC(=O)[C@H]3CCCC[C@@H]3N)[C@H](CC(C)C)CN1CC2 [Compound 4-25, [(2R,3S,11bR)-9,10-dimethoxy-3-(2-methylpropyl)-1H,2H,3H,4H,6H,7H,11bH-pyrido[2,1-a]isoquinolin-2-yl]methyl (1S,2S)-2-aminocyclohexane-1-carboxylate] | 10 to 500
COc1cc2c(cc1OC)[C@H]1C[C@@H](COC(=O)C3CNCCO3)[C@H](CC(C)C)CN1CC2 (stereo partly drawn) [Compound 4-27, [(2R,3S,11bR)-9,10-dimethoxy-3-(2-methylpropyl)-1H,2H,3H,4H,6H,7H,11bH-pyrido[2,1-a]isoquinolin-2-yl]methyl morpholine-2-carboxylate] | < 10
COc1cc2c(cc1OC)[C@H]1C[C@@H](COC(=O)[C@H](N)c3ccc(C(F)(F)F)cc3)[C@H](CC(C)C)CN1CC2 [Compound 4-30, [(2R,3S,11bR)-9,10-dimethoxy-3-(2-methylpropyl)-1H,2H,3H,4H,6H,7H,11bH-pyrido[2,1-a]isoquinolin-2-yl]methyl (2R)-2-amino-2-[4-(trifluoromethyl)phenyl]acetate] | 10 to 500
